Test results taken from the supplement of paper PMC6045584.
± gives the standard deviation of the averaged measurements.

What was measured:
MDV3100 [1] = compound: T1, CNC(=O)c1ccc(N2C(=S)N(c3ccc(C#N)c(C(F)(F)F)c3)C(=O)C2(C)C)cc1F [MDV3100]; test: area under dose-response curve of surviving fraction (unscaled, Aref=0) (surviving fraction x log10(nM)); higher = more resistant; details: exposure time: 5 days; dose range 0.5-1000 nM
How it was run: (§1)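 Inhibitor was applied to tumour cell lines at eight concentrations (0.5 to 1000 nM) for five days in 384-well plates. Luminescence from CellTiter-Glo, scaled to DMSO-only wells, gave surviving fractions in three screens per line, and these were fitted by 3-parameter logistic regression with the drc R package. The area under the curve is an unscaled activity area. Aref was 0, and dose was on a log10 scale.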

SAPACITABINE [2] = compound: T2, CCCCCCCCCCCCCCCC(=O)Nc1ccn([C@@H]2O[C@H](CO)[C@@H](O)[C@@H]2C#N)c(=O)n1 [SAPACITABINE]; test: as above; details: exposure time: 5 days; dose range 0.5-1000 nM
How it was run: as §1

CANERTINIB [3] = compound: T3, C=CC(=O)Nc1cc2c(Nc3ccc(F)c(Cl)c3)ncnc2cc1OCCCN1CCOCC1 [CANERTINIB]; test: as above; details: exposure time: 5 days; dose range 0.5-1000 nM
How it was run: as §1

[4] = compound: Cn1cc(C2=Nc3cc(NC(=O)C(N)C4CCCCC4)cc4c3C2=CNNC4=O)cn1; test: as above; details: exposure time: 5 days; dose range 0.5-1000 nM
How it was run: as §1

TIOGUANINE [5] = compound: T4, Nc1nc2[nH]cnc2c(=S)[nH]1 [TIOGUANINE]; test: as above; details: exposure time: 5 days; dose range 0.5-1000 nM
How it was run: as §1

AFATINIB [6] = compound: T5, CN(C)C/C=C/C(=O)Nc1cc2c(Nc3ccc(F)c(Cl)c3)ncnc2cc1O[C@H]1CCOC1 [AFATINIB]; test: as above; details: exposure time: 5 days; dose range 0.5-1000 nM
How it was run: as §1

SNX-5422 [7] = compound: T6, CC1(C)CC(=O)c2c(C(F)(F)F)nn(-c3ccc(C(N)=O)c(N[C@H]4CC[C@H](OC(=O)CN)CC4)c3)c2C1 [SNX-5422]; test: as above; details: exposure time: 5 days; dose range 0.5-1000 nM
How it was run: as §1

BI-2536 [8] = compound: T7, CC[C@@H]1C(=O)N(C)c2cnc(Nc3ccc(C(=O)NC4CCN(C)CC4)cc3OC)nc2N1C1CCCC1 [BI-2536]; test: as above; details: exposure time: 5 days; dose range 0.5-1000 nM
How it was run: as §1

MDV3100 [9] = compound: T1, MDV3100; test: surviving fraction relative to DMSO-only wells; higher = less growth inhibition; details: exposure time: 5 days
How it was run: (§2)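 Inhibitors were tested at 0.5, 1, 5, 10, 50, 100, 500 and 1000 nM, applied continuously for five days beginning 24 hours after log-phase tumour cells were seeded at 250–500 per well in 384-well plates. CellTiter-Glo luminescence served as the viability measure, expressed as surviving fraction against the median of DMSO-only wells. Each line, screened three times, was kept only with replicate Pearson r >0.7 and median Z' >0.3.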

SAPACITABINE [10] = compound: T2, SAPACITABINE; test: as above; details: exposure time: 5 days
How it was run: as §2

CANERTINIB [11] = compound: T3, CANERTINIB; test: as above; details: exposure time: 5 days
How it was run: as §2

[12] = compound: Cn1cc(C2=Nc3cc(NC(=O)C(N)C4CCCCC4)cc4c3C2=CNNC4=O)cn1; test: as above; details: exposure time: 5 days
How it was run: as §2

TIOGUANINE [13] = compound: T4, TIOGUANINE; test: as above; details: exposure time: 5 days
How it was run: as §2

AFATINIB [14] = compound: T5, AFATINIB; test: as above; details: exposure time: 5 days
How it was run: as §2

SNX-5422 [15] = compound: T6, SNX-5422; test: as above; details: exposure time: 5 days
How it was run: as §2

BI-2536 [16] = compound: T7, BI-2536; test: as above; details: exposure time: 5 days
How it was run: as §2

In the case of HOSMNG BONE, the “area under dose-response curve” value (MDV3100 [1]) is reported as 3.56, the “area under dose-response curve” value (SAPACITABINE [2]) is reported as 3.25 and the “area under dose-response curve” value (CANERTINIB [3]) is reported as 3.4. The “area under dose-response curve” value [4] was 3.09, the “area under dose-response curve” value (TIOGUANINE [5]) was 3.34 and the “area under dose-response curve” value (AFATINIB [6]) was 3.23. For the same test system, the “area under dose-response curve” value (SNX-5422 [7]) was 2.33, the “area under dose-response curve” value (BI-2536 [8]) was 1.32 and the surviving fraction (MDV3100 [9]; 0.5 nM) was 1.02 ± 0.035. It also gave a surviving fraction (MDV3100 [9]; 1 nM) of 1.01 ± 0.023, a surviving fraction (MDV3100 [9]; 5 nM) of 1.02 ± 0.041 and a surviving fraction (MDV3100 [9]; 10 nM) of 1.05 ± 0.033. The surviving fraction (MDV3100 [9]; 50 nM) was 1.11 ± 0.054, the surviving fraction (MDV3100 [9]; 100 nM) was 1.18 ± 0.088 and the surviving fraction (MDV3100 [9]; 500 nM) was 1.15 ± 0.062. It also gave a surviving fraction (MDV3100 [9]; 1000 nM) of 1.09 ± 0.032, a surviving fraction (SAPACITABINE [10]; 0.5 nM) of 0.96 ± 0.087 and a surviving fraction (SAPACITABINE [10]; 1 nM) of 1.02 ± 0.032. The surviving fraction (SAPACITABINE [10]; 5 nM) was 1.06 ± 0.021, the surviving fraction (SAPACITABINE [10]; 10 nM) was 1.04 ± 0.031 and the surviving fraction (SAPACITABINE [10]; 50 nM) was 1.12 ± 0.078. The surviving fraction (SAPACITABINE [10]; 100 nM) was 1.16 ± 0.016, the surviving fraction (SAPACITABINE [10]; 500 nM) was 0.948 ± 0.021 and the surviving fraction (SAPACITABINE [10]; 1000 nM) was 0.703 ± 0.046. It also gave a surviving fraction (CANERTINIB [11]; 0.5 nM) of 0.92 ± 0.04, a surviving fraction (CANERTINIB [11]; 1 nM) of 0.978 ± 0.014 and a surviving fraction (CANERTINIB [11]; 5 nM) of 1.003 ± 0.0067. The surviving fraction (CANERTINIB [11]; 10 nM) was 1.01 ± 0.055, the surviving fraction (CANERTINIB [11]; 50 nM) was 1.08 ± 0.12 and the surviving fraction (CANERTINIB [11]; 100 nM) was 1.11 ± 0.1. It also gave a surviving fraction (CANERTINIB [11]; 500 nM) of 1.04 ± 0.025, a surviving fraction (CANERTINIB [11]; 1000 nM) of 1.11 ± 0.016 and a surviving fraction ([12]; 0.5 nM) of 0.954 ± 0.099. For the same test system, the surviving fraction ([12]; 1 nM) was 0.99 ± 0.083, the surviving fraction ([12]; 5 nM) was 0.954 ± 0.052 and the surviving fraction ([12]; 10 nM) was 0.943 ± 0.016. It also gave a surviving fraction ([12]; 50 nM) of 0.992 ± 0.025, a surviving fraction ([12]; 100 nM) of 0.975 ± 0.076 and a surviving fraction ([12]; 500 nM) of 0.737 ± 0.017. It also gave a surviving fraction ([12]; 1000 nM) of 0.15 ± 0.031, a surviving fraction (TIOGUANINE [13]; 0.5 nM) of 0.991 ± 0.03 and a surviving fraction (TIOGUANINE [13]; 1 nM) of 1.01 ± 0.029. It also gave a surviving fraction (TIOGUANINE [13]; 5 nM) of 0.988 ± 0.068, a surviving fraction (TIOGUANINE [13]; 10 nM) of 0.989 ± 0.016 and a surviving fraction (TIOGUANINE [13]; 50 nM) of 1.05 ± 0.047. The surviving fraction (TIOGUANINE [13]; 100 nM) was 1.02 ± 0.089, the surviving fraction (TIOGUANINE [13]; 500 nM) was 1.04 ± 0.037 and the surviving fraction (TIOGUANINE [13]; 1000 nM) was 0.983 ± 0.028. It also gave a surviving fraction (AFATINIB [14]; 0.5 nM) of 0.944 ± 0.077, a surviving fraction (AFATINIB [14]; 1 nM) of 0.974 ± 0.04 and a surviving fraction (AFATINIB [14]; 5 nM) of 0.98 ± 0.021. It also gave a surviving fraction (AFATINIB [14]; 10 nM) of 0.915 ± 0.11, a surviving fraction (AFATINIB [14]; 50 nM) of 1.04 ± 0.054 and a surviving fraction (AFATINIB [14]; 100 nM) of 1.02 ± 0.13. The surviving fraction (AFATINIB [14]; 500 nM) was 1.06 ± 0.048, the surviving fraction (AFATINIB [14]; 1000 nM) was 0.991 ± 0.088 and the surviving fraction (SNX-5422 [15]; 0.5 nM) was 1.02 ± 0.017. It also gave a surviving fraction (SNX-5422 [15]; 1 nM) of 1 ± 0.036, a surviving fraction (SNX-5422 [15]; 5 nM) of 1.01 ± 0.04 and a surviving fraction (SNX-5422 [15]; 10 nM) of 0.973 ± 0.018. The surviving fraction (SNX-5422 [15]; 50 nM) was 0.964 ± 0.084, the surviving fraction (SNX-5422 [15]; 100 nM) was 0.299 ± 0.061 and the surviving fraction (SNX-5422 [15]; 500 nM) was 0.12 ± 0.012. It also gave a surviving fraction (SNX-5422 [15]; 1000 nM) of 0.108 ± 0.0047, a surviving fraction (BI-2536 [16]; 0.5 nM) of 1.03 ± 0.017 and a surviving fraction (BI-2536 [16]; 1 nM) of 0.955 ± 0.11. It also gave a surviving fraction (BI-2536 [16]; 5 nM) of 0.918 ± 0.055, a surviving fraction (BI-2536 [16]; 10 nM) of 0.268 ± 0.033 and a surviving fraction (BI-2536 [16]; 50 nM) of 0.047 ± 0.0036. It also gave a surviving fraction (BI-2536 [16]; 100 nM) of 0.046 ± 0.013, a surviving fraction (BI-2536 [16]; 500 nM) of 0.0673 ± 0.0061 and a surviving fraction (BI-2536 [16]; 1000 nM) of 0.0843 ± 0.013.
